In article PMC6839509, “Fluorescent probes towards selective cathepsin B detection and visualization in cancer cells and patient samples” (Chemical Science, 2019):

Columns and labels:
[1] = molecular target: T1, cathepsin B in human cancer cell lines (Homo sapiens, UniProt P07858); experiment: Detection of active cathepsin B in cancer cells using Cy5-labeled MP-CB-2 probe (SDS-PAGE, Western blot); assay type: cell-based; settings: A-431 cells; E-64d 25 μM; 1 μM MP-CB-2
T1 construct: we were able to label both cathepsin B active forms (single chain 29 kDa, and light chain 6 kDa); endogenous in cells; host or cells: human cancer cell lines (A-431, HCT-116, OVCAR-5, SK-OV-3, MDA-MB-231, U2-OS, PC-3, HeLa and others)
Method: 50 000 cells from fourteen adherent cancer cell lines were seeded into 12-well plates and allowed to attach overnight. In parallel, 50 000 cells from four non-adherent cancer cell lines were placed into 12-well plates and cultured overnight. The next day, MP-CB-2 ABP was added to the cells (1 μM final concentration) and incubated for various times (1, 4, 8, 24 hours). Next, cells were harvested, centrifuged at 500 × g for 5 min, cell pellets were washed with 1× DPBS, cells were centrifuged again at 500 × g for 5 min, and the supernatant was discarded. Finally, cell pellets were solubilized in 100 μL of 1× SDS/DTT and boiled for 5 min, cooled to room temperature and sonicated. Each sample (30 μL) was then subjected to SDS-PAGE analysis (4–12% Bis–Tris Plus 10-well gels, 200 V, 30 min), followed by protein transfer onto the membrane (0.2 μm nitrocellulose membrane, 10 V, 60 min). Ponceau S staining verified equal loading and transfer of proteins. Membranes were blocked in 2.5% BSA in TBS-T for 1 hour at room temperature. […] The images were then analyzed with the Image Studio software.
50 000 of selected cancer cells (A-431, HCT-116, OVCAR-5, SK-OV-3, MDA-MB-231, U2-OS, and PC-3) were seeded into 12-well plates and allowed to attach overnight. […] All images were analyzed with Image Studio software.

[2] = molecular target: T2, human recombinant cathepsin B (Homo sapiens, UniProt P07858); experiment: Kinetic parameters for inhibition (kobs/I), pseudo-first order; assay type: biochemical; settings: inhibitor at least 5-fold excess over cathepsin, 100 μM ACC substrate, pH 5.5, 37 °C, average of at least triplicate, S.D. below 20%
T2 construct: made in house
Method: (§1) All kinetic experiments were performed using a CLARIOStar (BMG LABTECH) plate reader operating in fluorescence kinetic mode using 96-well plates (Corning®, Costar®). ACC-labeled fluorescent substrates were screened at 355 nm (excitation) and 460 nm (emission) wavelengths (gain 650). The cathepsin assay buffer was composed of 100 mM sodium acetate, 100 mM sodium chloride, 10 mM DTT, 1 mM EDTA, pH 5.5. All kinetic studies were performed at 37 °C.
(§2) The kinetic parameters of inhibition of three irreversible Cy5/Cy7 labeled ABPs were determined for cathepsins B, L, V, S and K, and the inhibition parameters of CA-074 and CA-074Me were determined for cathepsins B and L. The kobs/I were measured under pseudo-first order reaction conditions. Individual cathepsins were mixed with various concentrations of ABP (at least 5-fold excess over cathepsins) and 100 μM ACC fluorescent substrate. Experiments were repeated at least in triplicate, and the results are presented as an average (S.D. were below 20%).

[3] = molecular target: T3, human recombinant cathepsin L (Homo sapiens, UniProt P07711); experiment: as above; assay type: biochemical; settings: inhibitor at least 5-fold excess over cathepsin, 100 μM ACC substrate, pH 5.5, 37 °C, average of at least triplicate, S.D. below 20%
T3 construct: with a 100 nM final concentration of each active cathepsin for 30 min; made in house
Method: as §1, §2

[4] = molecular target: T4, cathepsin B in cancer cell lysates (Homo sapiens, UniProt P07858); experiment: Cathepsin B activity in cancer cell lysates with Ac-Cha-Leu-Glu(O-Bzl)-Arg-ACC substrate, with inhibitors; assay type: biochemical; settings: lysates of selected cell lines (HeLa, A431, U2-OS, HCT-116, SKOV-3, MDA-MB-231); inhibitor pre-incubated 15 min; 100 μM substrate
T4 construct: we were able to label both cathepsin B active forms (single chain 29 kDa, and light chain 6 kDa); endogenous in cells; host or cells: human cancer cell lines (A-431, HCT-116, OVCAR-5, SK-OV-3, MDA-MB-231, U2-OS, PC-3, HeLa and others)
Method: Cell pellets from 50 000 cells were re-suspended in cathepsin assay buffer containing 0.5% Triton X-100 for cell lysis. Cell lysis was performed on ice for 30 min. After this time, cells were centrifuged at max speed for 5 min, and the supernatant (supplemented with 10 mM DTT) was used for the kinetic assay. In each assay 100 μM of cathepsin B selective substrate Ac-Cha-Leu-Glu(O-Bzl)-Arg-ACC was used, and the reaction progress was monitored for 30 min. In the experiments with inhibitors, cell lysate was pre-incubated with inhibitor for 15 min, followed by substrate addition and kinetic readout. Each measurement was performed three times and the substrate hydrolysis rate (RFU/s) in control (no inhibitor) was set to 100%, and other values were adjusted accordingly.

T3 sequence (P07711 114-333): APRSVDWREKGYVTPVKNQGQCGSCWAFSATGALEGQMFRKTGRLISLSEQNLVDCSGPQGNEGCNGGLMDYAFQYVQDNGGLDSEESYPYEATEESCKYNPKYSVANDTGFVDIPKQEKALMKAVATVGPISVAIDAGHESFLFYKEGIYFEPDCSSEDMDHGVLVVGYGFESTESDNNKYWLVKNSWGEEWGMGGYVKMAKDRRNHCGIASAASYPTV

| Compound | prevention of cathepsin B labeling by MP-CB-2 on pre-incubation with inhibitor [1] | kobs/I Cat-B [2] | kobs/I Cat-L [3] | inhibition of cathepsin B activity in cell lysates [4] |
| --- | --- | --- | --- | --- |
| CCCNC(=O)[C@H]1O[C@@H]1C(=O)N[C@H](C(=O)N1CCC[C@H]1C(=O)OC)[C@@H](C)CC [CA-074Me] | completely prevented | 92 M⁻¹ s⁻¹ | 152 M⁻¹ s⁻¹ | – |
| CCCNC(=O)[C@H]1O[C@@H]1C(=O)N[C@H](C(=O)N1CCC[C@H]1C(=O)O)[C@@H](C)CC [CA-074] | – | 42,000 M^-1s^-1 | n.i. | completely depleted its catalytic activity |
